Source: patent US20260191768A1, “PHARMACEUTICAL COMPOSITION CONTAINING HIGH CONCENTRATION OF OPIRANSERIN” (VIVOZON, INC., priority 2022, published 2026)
Where a name gives a salt, the structure may show the parent alone.

Tests used:
Type in all cases: physicochemical
[1] = Solubility of opiranserin hydrochloride as stated in the description; settings: solvent not stated; regarded as "sparingly soluble"
[2] = Screening of hydrotropes for improving solubility of opiranserin hydrochloride
Experimental: After adding 50 mL of water for injection into a 200 mL beaker, a weight of hydrotrope corresponding to the target content was added thereto and stirred at room temperature to completely dissolve it. Then, a weight of opiranserin hydrochloride corresponding to the target concentration was added and stirred at room temperature to completely dissolve it. If it was not completely dissolved in some solvents, the temperature was raised to 40° C. and additional stirring was carried out. When the added materials were completely dissolved, water for injection was added to the beaker to reach the 100 mL mark and further stirred to ensure that the composition was completely mixed. The prepared compositions were filtered using a 0.2 μm syringe filter and then dispensed into vials for injection.

[3] = Solubility measurement of opiranserin hydrochloride according to solvents (HPLC); settings: for solubility at 7 days / solubility at 3 h: thermodynamic from solid; for solubility at 7 days: 25° C./7 days
Experimental: An excess amount of opiranserin hydrochloride was added to the solvents shown in Table 1, stirred under the following conditions, centrifuged and filtered, and the filtrate was diluted. The solubility of the drug was measured using high-performance liquid chromatography (HPLC).

[4] = Room temperature stability of dissolved opiranserin hydrochloride; settings: for Opiranserin hydrochloride concentration, Initial: prepared at 40° C. for 3 hours
Experimental: Among solvents showing high solubility in Experimental Example 1, the solvents that have no irritation or can minimize irritation when preparing medicines were selected as shown in Table 2. Then, the solubility and short-term room temperature stability of opiranserin hydrochloride according to the concentration content were estimated. Each preparation was prepared by adjusting the solvent according to the concentration, adding an excess amount of opiranserin hydrochloride, and stirring at 40° C. for 3 hours. The preparation was centrifuged, the supernatant was transferred to a glass vial, and stored at room temperature to observe properties and analyze content. Liquid chromatography (HPLC) was used to analyze the content of opiranserin hydrochloride, and sampling was carried out upon completion of preparation and after storage at room temperature for 65 hours.

[5] = Solvent 27: 1 w/v % Poloxamer 124
[6] = Solvent 28: 5 w/v % Poloxamer 124
[7] = Solvent 29: 1 w/v % Propylene glycol
[8] = Solvent 30: 5 w/v % Propylene glycol

## CCCCOc1c(OC)cc(C(=O)NCC2(N(C)C)CCOCC2)cc1OC [Opiranserin hydrochloride, 4-butoxy-N-((4-(dimethylamino)tetrahydro-2H-pyran-4-yl)methyl)-3,5-dimethoxy benzamide]
[1]
  solubility: 25 mg/mL
[2]; sodium benzoate used as a hydrotrope
  Concentration of opiranserin hydrochloride that could be dissolved: up to 300 mg/mL
[2]; sodium salicylate used as a hydrotrope
  Concentration of opiranserin hydrochloride that could be stably dissolved: up to 100 mg/mL
[2]; trisodium citrate dihydrate used as a hydrotrope
  Concentration of opiranserin hydrochloride that could be stably dissolved: up to 100 mg/mL
[3]; 1 w/v % Caprylocaproyl polyoxyl 8 glyceride, 25 °C, aqueous with cosolvent or surfactant or cyclodextrin, Solvent 7: 1 w/v % Caprylocaproyl polyoxyl 8 glyceride
  solubility at 7 days: 46.2 mg/mL
[3]; 1 w/v % Hydroxpropyl-beta-cyclodextrin, 25 °C, aqueous with cosolvent or surfactant or cyclodextrin, Solvent 10: 1 w/v % Hydroxpropyl-beta-cyclodextrin
  solubility at 7 days: 49.2 mg/mL
[3]; 1 w/v % Macrogol 15 hydroxystearate, 25 °C, aqueous with cosolvent or surfactant or cyclodextrin, Solvent 8: 1 w/v % Macrogol 15 hydroxystearate
  solubility at 7 days: 44 mg/mL
[3]; 1 w/v % PEG-6 caprylic/capric glyceride, 25 °C, aqueous with cosolvent or surfactant or cyclodextrin, Solvent 16: 1 w/v % PEG-6 caprylic/capric glyceride
  solubility at 7 days: 49 mg/mL
[3]; 1 w/v % Poloxamer 124, 40 °C, aqueous with cosolvent or surfactant or cyclodextrin, Solvent 21: 1 w/v % Poloxamer 124, 40° C./3 hours
  solubility at 3 h: 72.1 mg/mL
[3]; 1 w/v % Polyoxyl 35 castor oil, 25 °C, aqueous with cosolvent or surfactant or cyclodextrin, Solvent 6: 1 w/v % Polyoxyl 35 castor oil
  solubility at 7 days: 42.1 mg/mL
[3]; 1 w/v % Polysorbate 80, 25 °C, aqueous with cosolvent or surfactant or cyclodextrin, Solvent 9: 1 w/v % Polysorbate 80
  solubility at 7 days: 44.7 mg/mL
[3]; 1 w/v % Propylene glycol, 40 °C, water, Solvent 23: 1 w/v % Propylene glycol, 40° C./3 hours
  solubility at 3 h: 61.8 mg/mL
[3]; 1 w/v % Triacetin, 25 °C, water, Solvent 13: 1 w/v % Triacetin
  solubility at 7 days: 49.7 mg/mL
[3]; 1 w/v % Triacetin, 40 °C, water, Solvent 19: 1 w/v % Triacetin, 40° C./3 hours
  solubility at 3 h: 78.6 mg/mL
[3]; 3 w/v % Hydroxpropyl-beta-cyclodextrin, 25 °C, aqueous with cosolvent or surfactant or cyclodextrin, Solvent 11: 3 w/v % Hydroxpropyl-beta-cyclodextrin
  solubility at 7 days: 55.6 mg/mL
[3]; 3 w/v % PEG-6 caprylic/capric glyceride, 25 °C, aqueous with cosolvent or surfactant or cyclodextrin, Solvent 17: 3 w/v % PEG-6 caprylic/capric glyceride
  solubility at 7 days: 57 mg/mL
[3]; 3 w/v % Triacetin, 25 °C, water, Solvent 14: 3 w/v % Triacetin
  solubility at 7 days: 57.1 mg/mL
[3]; 5 w/v % Poloxamer 124, 40 °C, aqueous with cosolvent or surfactant or cyclodextrin, Solvent 22: 5 w/v % Poloxamer 124, 40° C./3 hours
  solubility at 3 h: 83.8 mg/mL
[3]; 5 w/v % Propylene glycol, 40 °C, aqueous with cosolvent or surfactant or cyclodextrin, Solvent 24: 5 w/v % Propylene glycol, 40° C./3 hours
  solubility at 3 h: 74 mg/mL
[3]; 6 w/v % Hydroxpropyl-beta-cyclodextrin, 25 °C, aqueous with cosolvent or surfactant or cyclodextrin, Solvent 12: 6 w/v % Hydroxpropyl-beta-cyclodextrin
  solubility at 7 days: 63.3 mg/mL
[3]; 6 w/v % PEG-6 caprylic/capric glyceride, 25 °C, aqueous with cosolvent or surfactant or cyclodextrin, Solvent 18: 6 w/v % PEG-6 caprylic/capric glyceride
  solubility at 7 days: 67.6 mg/mL
[3]; 6 w/v % Triacetin, 25 °C, aqueous with cosolvent or surfactant or cyclodextrin, Solvent 15: 6 w/v % Triacetin
  solubility at 7 days: 72.7 mg/mL
[3]; 6 w/v % Triacetin, 40 °C, aqueous with cosolvent or surfactant or cyclodextrin, Solvent 20: 6 w/v % Triacetin, 40° C./3 hours
  solubility at 3 h: ~86 mg/mL
[3]; 100% Ethanol, 25 °C, organic solvent or mixture, Solvent 2: 100% Ethanol
  solubility at 7 days: 25.1 mg/mL
[3]; 100% Methanol, 25 °C, organic solvent or mixture, Solvent 3: 100% Methanol
  solubility at 7 days: 36 mg/mL
[3]; 100% Polyethylene, 25 °C, organic solvent or mixture, Solvent 5: 100% Polyethylene
  solubility at 7 days: 2.59 mg/mL
[3]; 100% Propylene glycol, 25 °C, organic solvent or mixture, Solvent 4: 100% Propylene glycol
  solubility at 7 days: 13 mg/mL
[3]; Purified water, 25 °C, water, Solvent 1: Purified water
  solubility at 7 days: 45.2 mg/mL
[3]; Solvent 20: 6 w/v % Triacetin, 40° C./3 hours
  Opiranserin hydrochloride Solubility: 86.1 mg/mL
[4]; Solvent 25: 1 w/v % Triacetin
  Change in properties after storage at room temperature for 65 hours: Recrystallization generation
  Opiranserin hydrochloride concentration, After storage at room temperature for 65 hours: 44.33 mg/mL
  Opiranserin hydrochloride concentration, Initial: 78.6 mg/mL
[4]; Solvent 26: 6 w/v % Triacetin
  Change in properties after storage at room temperature for 65 hours: Recrystallization generation
  Opiranserin hydrochloride concentration, After storage at room temperature for 65 hours: 38.1 mg/mL
  Opiranserin hydrochloride concentration, Initial: 86.1 mg/mL
[4]; Solvent 26: 6 w/v % Triacetin, listed as opiranserin hydrochloride
  Change in properties after storage at room temperature for 65 hours: recrystallization of needle-shaped structure was generated
[4]; [5]
  Change in properties after storage at room temperature for 65 hours: Recrystallization generation
  Opiranserin hydrochloride concentration, After storage at room temperature for 65 hours: 41.1 mg/mL
  Opiranserin hydrochloride concentration, Initial: 72.1 mg/mL
[4]; [6]
  Change in properties after storage at room temperature for 65 hours: Recrystallization generation
  Opiranserin hydrochloride concentration, After storage at room temperature for 65 hours: 42.5 mg/mL
  Opiranserin hydrochloride concentration, Initial: 83.8 mg/mL
[4]; [7]
  Change in properties after storage at room temperature for 65 hours: Recrystallization generation
  Opiranserin hydrochloride concentration, After storage at room temperature for 65 hours: 34.8 mg/mL
  Opiranserin hydrochloride concentration, Initial: 61.8 mg/mL
[4]; [8]
  Change in properties after storage at room temperature for 65 hours: Recrystallization generation
  Opiranserin hydrochloride concentration, After storage at room temperature for 65 hours: 34.8 mg/mL
  Opiranserin hydrochloride concentration, Initial: 74.0 mg/mL
